For experiment [1], the system named is guinea pig tracheal smooth muscle. In words: Tracheal relaxant activity of VIP analogs on isolated guinea pig tracheal rings. The format is cell-based. Particulars: cumulative concentration response, relaxation as % of maximum response to VIP (10^-6 M=100%), three tissues pooled, linear regression. A digest of the protocol:
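Male guinea pig tracheal rings under 1.5 g resting tension in Krebs at 37° C, 95% O2/5% CO2, isometric tension. Cumulative concentration-response curves; relaxation as % of response to 10^-6 M VIP added at end; three tissues pooled, EC50 by linear regression.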

Experiment [2] deals with guinea pigs. In words: In vivo bronchodilator activity by tracheal instillation against histamine challenge. On the set-up: species or system guinea pig. Particulars: anesthetized male guinea pigs, inhibition of histamine (i.v.)-induced rise in tracheal pressure. As for the experimental part:
The in vivo bronchodilator activity of VIP and VIP analogs in guinea pigs was assessed by the tracheal instillation route of administration. This technique utilized male guinea pigs (Hartley strain, Charles River) weighing 400-600 g. Animals were anesthetized with urethane (2 g/kg) intraperitoneally and a polyethylene cannula was inserted into the jugular vein for intraveneous drug administration.
The animals were tracheotomized and dosing solutions of distilled water or test compound dissolved in distilled water were administered into the trachea, approximately three-quarters the distance to the carina with a pipette. The concentration of the dosing solution was adjusted to deliver a constant volume of […]. The animals were placed supine for one minute to aid drug delivery to the lung. One minute later, spontaneous breathing was arrested with succinylcholine chloride (1.2 mg/kg) administered intraveneously, and the animals were ventilated with a HARVARD Model 680 small animal respirator set at 40 breaths/min and 4.0 cm^3 stroke volume. The animals were challenged with a maximal constrictory dose of histamine ([…], i.v.) and tracheal pressure (cm of water) was recorded from a STATHAM pressure transducer (P 32 AA).
The change in tracheal pressure was averaged for at least 3 control and 3 drug-treated animals and percent inhibition was calculated. The relative potency of compounds administered by the instillation route was determined by administering various doses of test compound and calculating the median effective dose (ED50 value). The ED50 was determined from log dose-response curves generated by at least 3 doses that caused inhibitory effects between 10% and 90%. The correlation coefficients for the regression line of each compound was always greater than 0.95.
For determination of the time course of inhibition for various compounds, the time between administration of compound and challenge with histamine was varied. The time course of activity was calculated as the time when inhibition decreased to 40%.
The results summarized in Table II show the in vivo bronchodilator activity of the VIP analogs in comparison to native VIP.

Where a SMILES comes first, the peptide text is derived from it. Bridges are numbered along the chain shown (N, C = ends). [ ]: non-standard residue; d: D form. Phe(4-F) = N[C@@H](Cc1ccc(F)cc1)C(=O)O; 2Nal = N[C@@H](Cc1ccc2ccccc2c1)C(=O)O; Nle = CCCC[C@H](N)C(=O)O; Orn = NCCC[C@H](N)C(=O)O

With `CCCC[C@H](NC(=O)[C@H](CCC(N)=O)NC(=O)[C@H](CCCCN)NC(=O)[C@H](CCCNC(=N)N)NC(=O)[C@H](CC(C)C)NC(=O)[C@H](CCCCN)NC(=O)[C@@H](NC(=O)[C@H](Cc1ccc(O)cc1)NC(=O)[C@H](CC(N)=O)NC(=O)[C@H](CC(=O)O)NC(=O)[C@@H](NC(=O)[C@H](Cc1ccccc1)NC(=O)[C@@H](NC(=O)[C@H](C)NC(=O)[C@H](CC(=O)O)NC(=O)[C@H](CO)NC(=O)[C@H](Cc1c[nH]cn1)NC(C)=O)C(C)C)[C@@H](C)O)[C@@H](C)O)C(=O)N[C@@H](C)C(=O)N[C@@H](C)C(=O)N[C@@H](CCCCN)C(=O)N[C@H]1CCCCNC(=O)C[C@@H](C(=O)N[C@H](C(=O)N[C@@H](CC(C)C)C(=O)N[C@H](C(N)=O)[C@@H](C)O)C(C)C)NC(=O)[C@H](CC(N)=O)NC(=O)[C@H](CC(C)C)NC(=O)[C@H](Cc2ccc(O)cc2)NC1=O` [SEQ ID NO:29, Ac-[Lys^12,Nle^17,Ala^19,Asp^25,Val^26,Thr^28]-VIP cyclo (Lys^21 →Asp^25)] (Ac-HSDAVFTDNYTKLRKQ[Nle]AAKKYLNDVLT-NH2; lactam 21-25), the EC50 – broadly, the concentration that produces a half-maximal response – in experiment [1] turned out to be 0.7 nM. Also, in experiment [2], the “Bronchodilator activity of VIP analogs in guinea pigs, ED50” value was 0.34 μg.
For the compound `CCCC[C@H](NC(=O)[C@H](CCC(N)=O)NC(=O)[C@H](CCCCN)NC(=O)[C@H](CCCNC(=N)N)NC(=O)[C@H](CC(C)C)NC(=O)[C@H](CCCCN)NC(=O)[C@@H](NC(=O)[C@H](Cc1ccc2ccccc2c1)NC(=O)[C@H](CC(N)=O)NC(=O)[C@H](CC(=O)O)NC(=O)[C@@H](NC(=O)[C@H](Cc1ccc(F)cc1)NC(=O)[C@@H](NC(=O)[C@H](C)NC(=O)[C@H](CC(=O)O)NC(=O)[C@H](CO)NC(=O)[C@H](Cc1c[nH]cn1)NC(C)=O)C(C)C)[C@@H](C)O)[C@@H](C)O)C(=O)N[C@@H](C)C(=O)N[C@H](C(=O)N[C@@H](CCCCN)C(=O)N[C@H]1CCCCNC(=O)C[C@@H](C(=O)N[C@H](C(=O)N[C@@H](CC(C)C)C(=O)N[C@H](C(=O)NCC(=O)NCC(=O)N[C@@H](CCSC)C(N)=O)[C@@H](C)O)C(C)C)NC(=O)[C@H](CC(N)=O)NC(=O)[C@H](CC(C)C)NC(=O)[C@H](Cc2ccc(O)cc2)NC1=O)C(C)C` [SEQ ID NO:30, Ac-[p-F-Phe^6,2-Nal^10,Lys^12,Nle^17,Asp^25,Val^26,Thr^28,Gly^29,30,Met^31]-VIP (1-31)-NH2 cyclo (Lys^21 →Asp^25)] (Ac-HSDAV[Phe(4-F)]TDN[2Nal]TKLRKQ[Nle]AVKKYLNDVLTGGM-NH2; lactam 21-25), it took 1.3 nM to reach a half-maximal effect in experiment [1] (EC50). In addition, in experiment [2], the “Bronchodilator activity of VIP analogs in guinea pigs, ED50” value stood at 0.90 μg.
In the same order, the values of `CCCC[C@H](NC(=O)[C@H](CCC(N)=O)NC(=O)[C@H](CCCCN)NC(=O)[C@H](CCCNC(=N)N)NC(=O)[C@H](CC(C)C)NC(=O)[C@H](CCCN)NC(=O)[C@@H](NC(=O)[C@H](Cc1ccc(O)cc1)NC(=O)[C@H](CC(N)=O)NC(=O)[C@H](CCC(=O)O)NC(=O)[C@@H](NC(=O)[C@H](Cc1ccccc1)NC(=O)[C@@H](NC(=O)[C@H](C)NC(=O)[C@H](CC(=O)O)NC(=O)[C@H](CO)NC(=O)[C@H](Cc1c[nH]cn1)NC(C)=O)C(C)C)[C@@H](C)O)[C@@H](C)O)C(=O)N[C@@H](C)C(=O)N[C@H](C(=O)N[C@@H](CCCCN)C(=O)N[C@H]1CCCCNC(=O)C[C@@H](C(=O)N[C@H](C(=O)N[C@@H](CC(C)C)C(=O)N[C@H](C(N)=O)[C@@H](C)O)C(C)C)NC(=O)[C@H](CC(N)=O)NC(=O)[C@H](CC(C)C)NC(=O)[C@H](Cc2ccc(O)cc2)NC1=O)C(C)C` [SEQ ID NO:31, Ac-[Glu^8,Orn^12,Nle^17,Asp^25,Val^26,Thr^28]-VIP cyclo (Lys^21 →Asp^25)] (Ac-HSDAVFTENYT[Orn]LRKQ[Nle]AVKKYLNDVLT-NH2; lactam 21-25) are 2.2 nM and 0.19 μg.

These data come from patent US5677419A, “Cyclic vasoactive peptide analogs” (Hoffmann-La Roche Inc., priority 1994, dated 1997).
